The text below walks through data of patent US20250011288A1 (BRISTOL-MYERS SQUIBB COMPANY, priority 2021, published 2025).

For this assay, the target named is T1, human RXFP1 (Homo sapiens, UniProt Q9HBX9).
T1 construct: expressed in transfected cells
T1 sequence (Q9HBX9 1-757): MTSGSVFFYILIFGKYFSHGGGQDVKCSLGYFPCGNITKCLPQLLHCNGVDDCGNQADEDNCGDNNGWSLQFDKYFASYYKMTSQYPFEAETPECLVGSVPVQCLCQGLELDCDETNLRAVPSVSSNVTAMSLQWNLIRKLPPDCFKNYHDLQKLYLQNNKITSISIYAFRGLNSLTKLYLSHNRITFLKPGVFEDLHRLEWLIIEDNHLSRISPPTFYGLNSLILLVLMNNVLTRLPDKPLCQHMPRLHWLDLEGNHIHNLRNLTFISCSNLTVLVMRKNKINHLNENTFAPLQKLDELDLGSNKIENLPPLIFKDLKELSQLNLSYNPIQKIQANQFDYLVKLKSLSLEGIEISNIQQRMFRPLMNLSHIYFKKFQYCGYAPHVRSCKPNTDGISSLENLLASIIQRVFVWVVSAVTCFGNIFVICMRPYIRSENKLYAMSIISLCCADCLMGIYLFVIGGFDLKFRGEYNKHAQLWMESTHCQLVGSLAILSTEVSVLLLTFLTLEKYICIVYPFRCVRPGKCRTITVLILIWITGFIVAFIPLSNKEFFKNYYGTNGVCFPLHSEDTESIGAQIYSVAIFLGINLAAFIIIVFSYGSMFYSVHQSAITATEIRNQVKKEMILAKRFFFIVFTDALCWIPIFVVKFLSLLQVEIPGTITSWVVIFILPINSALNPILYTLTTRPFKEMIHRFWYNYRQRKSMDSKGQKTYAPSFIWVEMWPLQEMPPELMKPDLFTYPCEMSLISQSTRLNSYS
The experiment in a line: human RXFP1 (hRXFP1) HEK293 cAMP assay (HTRF). The assay is classed as cell-based. The settings on record: HEK293 cells stably expressing human RXFP1, 30 min at room temperature. The procedure: RXFP1 Cyclic Adenosine Monophosphate (cAMP) Assays. […] Cells were dissociated and suspended in assay buffer. The assay buffer was HBSS buffer (with calcium and magnesium) containing 20 mM HEPES, 0.05% BSA, and 0.5 mM IBMX. Cells (3000 cells per well, except 1500 cell per well for HEK293 cells stably expressing human RXFP1) were added to 384-well Proxiplates (Perkin-Elmer). Cells were immediately treated with test compounds in DMSO (2% final) at final concentrations in the range of 0.010 nM to 50 µM. Cells were incubated for 30 min at room temperature. The level of intracellular cAMP was determined using the HTRF HiRange cAMP assay reagent kit (Cisbio) according to manufacturer's instructions. Solutions of cryptate conjugated anti-cAMP and d2 fluorophore-labelled cAMP were made in a supplied lysis buffer separately. Upon completion of the reaction, the cells were lysed with equal volume of the d2-cAMP solution and anti-cAMP solution. […] The potency and activity of a compound to […] cAMP production was then determined by fitting to a 4-parametric logistic equation from a plot of cAMP level versus compound concentrations.
In general terms: cAMP levels reflect the balance of adenylyl cyclase and phosphodiesterase activity.

One may read the EC50 as the midpoint of the concentration-response curve. Read a high EC50 as a less potent agent. In turn, `COc1ncc(C2=NOC3COCC23)cc1C(=O)N[C@H]1[C@@H](C(=O)Nc2ccc(F)c(C(F)(F)F)c2)[C@H]2CC[C@@H]1/C2=C\C1CC1` (single isomer, unassigned) [Example 60] showed an EC50 of 210 nM.

The molecule `COc1ncc(C2=NOC3COCC23)cc1C(=O)N[C@H]1[C@@H](C(=O)Nc2ccc(F)c(C(F)(F)F)c2)[C@H]2CC[C@@H]1/C2=C\C1CC1` (single isomer, unassigned) [Example 61] showed a half-maximal effective concentration (EC50) of 3.7 nM.

Turning to `O=C(N[C@@H]1C2CCC(/C2=C/C2CC2)[C@@H]1C(=O)Nc1ccc(F)c(C(F)(F)F)c1)c1cncc(C2=NOC3COCC23)c1` (single isomer, unassigned) [Example 62], a half-maximal effect (EC50) was put at 2400 nM.

Regarding `O=C(N[C@@H]1C2CCC(/C2=C/C2CC2)[C@@H]1C(=O)Nc1ccc(F)c(C(F)(F)F)c1)c1cncc(C2=NOC3COCC23)c1` (single isomer, unassigned) [Example 63], the EC50 is 120 nM.

Molecule `COc1ncc(C2=NOC3CC(C(N)=O)CC23)cc1C(=O)N[C@H]1[C@@H](C(=O)Nc2ccc(F)c(C(F)(F)F)c2)[C@H]2CC[C@@H]1/C2=C\C1CC1` (single isomer, unassigned) [Example 65] had an EC50 of 21 nM.

The molecule `COc1ncc(C2=NOC3CC(CO)CC23)cc1C(=O)N[C@@H]1C2CCC(/C2=C/C2CC2)[C@@H]1C(=O)Nc1ccc(F)c(C(F)(F)F)c1` (single isomer, unassigned) [Example 67] registered an EC50 of 300 nM.

The molecule `COc1ncc(C2=NOC3CC(CO)CC23)cc1C(=O)N[C@@H]1C2CCC(/C2=C/C2CC2)[C@@H]1C(=O)Nc1ccc(F)c(C(F)(F)F)c1` (single isomer, unassigned) [Example 68] came in with an EC50 of 130 nM.

In turn, `COc1ncc(C2=NOC3CC(CO)CC23)cc1C(=O)N[C@@H]1C2CCC(/C2=C/C2CC2)[C@@H]1C(=O)Nc1ccc(F)c(C(F)(F)F)c1` (single isomer, unassigned) [Example 69] gave a concentration giving a half-maximal response (EC50) of 1.5 nM.

`COc1ncc(C2=NOC3CC(CO)CC23)cc1C(=O)N[C@@H]1C2CCC(/C2=C/C2CC2)[C@@H]1C(=O)Nc1ccc(F)c(C(F)(F)F)c1` (single isomer, unassigned) [Example 70] yielded a concentration giving a half-maximal response (EC50) of 2.3 nM.

Regarding `COc1cnc(C2=NOC3COCC23)cc1C(=O)N[C@H]1[C@@H](C(=O)Nc2ccc(F)c(C(F)(F)F)c2)[C@H]2CC[C@@H]1/C2=C\C1CC1` (single isomer, unassigned) [Example 71], the half-maximal effective concentration (EC50) worked out at 28 nM.

`COc1cnc(C2=NOC3COCC23)cc1C(=O)N[C@H]1[C@@H](C(=O)Nc2ccc(F)c(C(F)(F)F)c2)[C@H]2CC[C@@H]1/C2=C\C1CC1` (single isomer, unassigned) [Example 72] displayed an EC50 of 160 nM.

Molecule `CC1(C)Cc2cc(C3=NOC4CC(O)(C(F)(F)F)CC34)cc(C(=O)N[C@@H]3C4CCC(/C4=C/C4CCCC4)[C@@H]3C(=O)Nc3ccc(F)c(C(F)(F)F)c3)c2O1` (single isomer, unassigned) [Example 142] showed a concentration giving a half-maximal response (EC50) of 2.2 nM.

Molecule `COc1ncc(C(=O)NCC2(S(C)(=O)=O)CC2)cc1C(=O)N[C@H]1C(C(=O)Nc2ccc(F)c(C(F)(F)F)c2)[C@H]2CC[C@@H]1/C2=C\C1CC1` (stereo in doubt) [Example 74, N3-((1R,2R,3R,4R,Z)-7-(cyclopropylmethylene)-3-((4-fluoro-3-(trifluoromethyl)phenyl)carbamoyl)bicyclo[2.2.1]heptan-2-yl)-2-methoxy-N5-((1-(methylsulfonyl)cyclopropyl)methyl)pyridine-3,5-dicarboxamide] gave a concentration giving a half-maximal response (EC50) of 3.5 nM.

With `COc1ncc(Br)cc1C(=O)N[C@@H]1C2CCC(C2=C(C)C)[C@@H]1C(=O)Nc1ccc(F)c(C(F)(F)F)c1` (stereo partly drawn) [Example 1, 5-bromo-N-[(2R,3S)-3-{[4-fluoro-3-(trifluoromethyl)phenyl]carbamoyl}-7-(propan-2-ylidene)bicyclo[2.2.1]heptan-2-yl]-2-methoxypyridine-3-carboxamide], the midpoint of the response, the EC50, lay at 710 nM.

For the molecule `COc1ccncc1C(=O)N[C@@H]1C2CCC(C2=C(C)C)[C@@H]1C(=O)Nc1ccc(F)c(C(F)(F)F)c1` (stereo partly drawn) [Example 2, N-[(2R,3S)-3-{[4-fluoro-3-(trifluoromethyl)phenyl]carbamoyl}-7-(propan-2-ylidene)bicyclo [2.2.1]heptan-2-yl]-4-methoxypyridine-3-carboxamide], the EC50 is 660 nM.

As to `CC(C)=C1C2CCC1[C@H](C(=O)Nc1ccc(F)c(C(F)(F)F)c1)[C@@H]2NC(=O)c1cc(C#N)ccn1` (stereo partly drawn) [Example 3, 4-cyano-N-[(2R,3S)-3-{[4-fluoro-3-(trifluoromethyl)phenyl]carbamoyl}-7-(propan-2-ylidene)bicyclo [2.2.1]heptan-2-yl]pyridine-2-carboxamide], the 50% effective concentration (EC50) came to 440 nM.

The molecule `COc1cc(C(=O)N[C@@H]2C3CCC(C3=C(C)C)[C@@H]2C(=O)Nc2ccc(F)c(C(F)(F)F)c2)c(OC)nn1` (stereo partly drawn) [Example 4, N-[(2R,3S)-3-{[4-fluoro-3-(trifluoromethyl)phenyl]carbamoyl}-7-(propan-2-ylidene)bicyclo [2.2.1]heptan-2-yl]-3,6-dimethoxy-pyridazine-4-carboxamide] yielded a 50% effective concentration (EC50) of 5000 nM.

Turning to `COc1ncc(Br)nc1C(=O)N[C@@H]1C2CCC(C2=C(C)C)[C@@H]1C(=O)Nc1ccc(F)c(C(F)(F)F)c1` (stereo partly drawn) [Example 5, 6-bromo-N-[(2R,3S)-3-{[4-fluoro-3-(trifluoromethyl)phenyl]carbamoyl}-7-(propan-2-ylidenc)bicyclo [2.2.1]heptan-2-yl]-3-methoxypyrazine-2-carboxamide], a half-maximal response (EC50) required 1100 nM.

In turn, `COc1cnccc1C(=O)N[C@@H]1C2CCC(C2=C(C)C)[C@@H]1C(=O)Nc1ccc(F)c(C(F)(F)F)c1` (stereo partly drawn) [Example 6, N-[(2R,3S)-3-{[4-fluoro-3-(trifluoromethyl)phenyl]carbamoyl}-7-(propan-2-ylidene)bicyclo [2.2.1]heptan-2-yl]-3-methoxypyridine-4-carboxamide] had an EC50 of 1100 nM.

Molecule `COc1nccnc1C(=O)N[C@@H]1C2CCC(C2=C(C)C)[C@@H]1C(=O)Nc1ccc(F)c(C(F)(F)F)c1` (stereo partly drawn) [Example 7, N-[(2R,3S)-3-{[4-fluoro-3-(trifluoromethyl)phenyl]carbamoyl}-7-(propan-2-ylidene)bicyclo [2.2.1]heptan-2-yl]-3-methoxypyrazine-2-carboxamide] gave an EC50 of 1200 nM.

For the molecule `COc1ncccc1C(=O)N[C@@H]1C2CCC(C2=C(C)C)[C@@H]1C(=O)Nc1ccc(F)c(C(F)(F)F)c1` (stereo partly drawn) [Example 8, N-[(2R,3S)-3-{[4-fluoro-3-(trifluoromethyl)phenyl]carbamoyl}-7-(propan-2-ylidene)bicyclo [2.2.1]heptan-2-yl]-2-methoxypyridine-3-carboxamide], the 50% effective concentration (EC50) stood at 1300 nM.

Turning to `COc1cscc1C(=O)N[C@@H]1C2CCC(C2=C(C)C)[C@@H]1C(=O)Nc1ccc(F)c(C(F)(F)F)c1` (stereo partly drawn) [Example 9, N-[(2R,3S)-3-{[4-fluoro-3-(trifluoromethyl)phenyl]carbamoyl}-7-(propan-2-ylidene)bicyclo [2.2.1]heptan-2-yl]-4-methoxy-thiophene-3-carboxamide], it took 1400 nM to reach a half-maximal effect (EC50).

In turn, `COc1ncncc1C(=O)N[C@@H]1C2CCC(C2=C(C)C)[C@@H]1C(=O)Nc1ccc(F)c(C(F)(F)F)c1` (stereo partly drawn) [Example 10, N-[(2R,3S)-3-{[4-fluoro-3-(trifluoromethyl)phenyl]carbamoyl}-7-(propan-2-ylidene)bicyclo [2.2.1]heptan-2-yl]-4-methoxypyrimidine-5-carboxamide] showed a concentration giving a half-maximal response (EC50) of 5000 nM.

Consider `COc1ncc(Cl)cc1C(=O)N[C@@H]1C2CCC(/C2=C/C(F)(F)F)[C@@H]1C(=O)Nc1ccc(F)c(C(F)(F)F)c1` (stereo partly drawn) [Example 11, 5-chloro-N-[(2R,3S,7Z)-3-{[4-fluoro-3-(trifluoromethyl)phenyl]carbamoyl}-7-(2,2,2-trifluoroethylidcne)bicyclo[2. 2.1]heptan-2-yl]-2-methoxypyridine-3-carboxamide], for which the EC50 was 940 nM.

For `COc1nn(C)cc1C(=O)N[C@@H]1C2CCC(/C2=C/C(F)(F)F)[C@@H]1C(=O)Nc1ccc(F)c(C(F)(F)F)c1` (stereo partly drawn) [Example 12, N-[(2R,3S,7Z)-3-{[4-fluoro-3-(trifluoromethyl)phenyl]carbamoyl}-7-(2,2,2-trifluoroethylidene)bicyclo[2.2.1]heptan-2-yl]-3-methoxy-1-methyl-1H-pyrazole-4-carboxamide], the response was half-maximal at 4600 nM (EC50).
